For assay [1], the system named is Mycobacterium tuberculosis. Kind of assay: Antitubercular activity against Mycobacterium tuberculosis H37Rv by broth dilution method. The class given is functional. (In general: Dilution methods test growth across graded concentrations, often in twofold steps.)
In assay [2] the test system is Mycobacterium tuberculosis. Kind of assay: Antitubercular activity against Mycobacterium tuberculosis. It counts as functional.
The test system of assay [3] is Mycobacterium tuberculosis. Kind of assay: Antitubercular activity against Mycobacterium tuberculosis H37Rv by Lowensteine-Jensen method. It counts as functional.
For assay [4], the system named is Mycobacterium tuberculosis. Kind of assay: Antitubercular activity against Mycobacterium tuberculosis H37Rv. The class given is functional.
A further assay concerns HepG2. Kind of assay: Cytotoxicity against human HepG2 cells. The class given is cell-based.
Assay [5] relates to Mycobacterium tuberculosis. Kind of assay: Growth inhibition of Mycobacterium tuberculosis H37Rv at 62.5 ug/ml by broth dilution method relative to control. It counts as functional. As to conditions: read-out: GI.
For assay [6], the system named is Mycobacterium tuberculosis. Kind of assay: Potency index, ratio of pyrazinamide MIC to compound MIC for Mycobacterium tuberculosis. It counts as functional.
The subject of assay [7] is Mycobacterium tuberculosis. Kind of assay: Potency index, ratio of pyrazinamide MIC to compound MIC for Mycobacterium tuberculosis H37Rv. The class given is functional.
Assay [8] deals with T1, Enoyl-[acyl-carrier-protein] reductase [NADH] (Mycobacterium tuberculosis, UniProt P9WGR1).
T1 sequence (P9WGR1 whole entry): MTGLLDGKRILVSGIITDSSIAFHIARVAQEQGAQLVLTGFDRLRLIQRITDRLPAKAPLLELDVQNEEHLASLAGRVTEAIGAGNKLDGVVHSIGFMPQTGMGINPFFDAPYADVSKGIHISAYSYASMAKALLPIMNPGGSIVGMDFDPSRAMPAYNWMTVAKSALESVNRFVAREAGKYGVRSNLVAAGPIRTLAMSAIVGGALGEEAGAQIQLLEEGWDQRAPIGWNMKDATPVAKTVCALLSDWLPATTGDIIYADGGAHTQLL
Kind of assay: Inhibition of Mycobacterium tuberculosis InhA using DDCoA as substrate in presence of NADH by fluorimetric method.

Assay [9] deals with Mycobacterium tuberculosis. Kind of assay: Antitubercular activity against Mycobacterium tuberculosis spec.210. It counts as functional.
For a further assay, the target named is T2, Pantothenate synthetase (Mycobacterium tuberculosis, UniProt P9WIL5).
T2 sequence (P9WIL5 whole entry): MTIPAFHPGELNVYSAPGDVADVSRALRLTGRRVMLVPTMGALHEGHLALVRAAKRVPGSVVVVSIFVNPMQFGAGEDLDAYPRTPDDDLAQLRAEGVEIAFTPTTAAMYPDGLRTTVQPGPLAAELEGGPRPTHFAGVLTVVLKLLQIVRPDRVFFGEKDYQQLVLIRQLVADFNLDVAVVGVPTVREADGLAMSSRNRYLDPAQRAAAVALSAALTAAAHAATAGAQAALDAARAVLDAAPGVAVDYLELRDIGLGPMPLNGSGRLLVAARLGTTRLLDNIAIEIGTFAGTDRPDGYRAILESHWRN
Kind of assay: Inhibition of Mycobacterium tuberculosis pantothenate synthetase.

Assay [10] deals with Mycobacterium tuberculosis. Kind of assay: Antitubercular activity against Mycobacterium tuberculosis spec.192. It counts as functional.
In assay [11] the test system is Mycobacterium tuberculosis. Kind of assay: Antitubercular activity against Mycobacterium tuberculosis H37Rv ATCC 27294 at 6.25 ug/ml by BACTEC radiometric method relative to control. It counts as functional.
The test system of assay [12] is Mycobacterium tuberculosis. Kind of assay: Growth inhibition of Mycobacterium tuberculosis H37Rv ATCC 27294 at 6.25 ug/ml by BACTEC radiometric method relative to control. It counts as functional. As to conditions: read-out: GI.

Values after ≈ are worked out from the molar mass of the structure shown. Some results are limits rather than exact numbers.

These results are taken from ChEMBL document CHEMBL4130388, “Recent advances of pyrazole-containing derivatives as anti-tubercular agents” (Eur J Med Chem, 2017).

The term MIC denotes the lowest concentration found to suppress growth. For `CCOC(=O)C1=C(C)NC(=O)NC1c1cn(-c2ccccc2)nc1-c1ccc([N+](=O)[O-])cc1` (stereo not given), inhibition of growth in assay [1] (MIC) required 0.02 µg/mL (≈ 0.0447 µM). As for `CCOC(=O)C1=C(C)NC(=O)NC1c1cn(-c2ccccc2)nc1-c1ccc(F)cc1` (stereo not given), the MIC in assay [1] stood at 0.02 µg/mL (≈ 0.0476 µM).

What is called IC90 is the concentration needed for an effect of 90%. Higher therefore signals a need for much substance. The compound `Nc1nc(-c2ccc(O)cc2)cc(-c2cn(-c3ccccc3)nc2-c2ccc(F)cc2)n1` displayed an IC90 in assay [2] of 0.88 µg/mL (≈ 2.08 µM). As to `O=C(NCCCn1ncc2ccc([N+](=O)[O-])cc21)N1C(=O)C(Cl)C1c1ccccc1` (stereo not given), in assay [3], the minimal inhibitory concentration (MIC) lay within 6.25 to 50 µg/mL (≈ 14.6 to 117 µM).

By IC50 is commonly meant the concentration that gives 50% inhibition. With `CC1=NN(C(=O)c2cc(-c3ccc(Cl)cc3)n[nH]2)C(=O)/C1=N\Nc1ccc(F)cc1`, the MIC in [4] worked out at 0.35 µg/mL. Also, the IC50 in the assay on HepG2 was more than 500 µM.

As for `Cc1nn(-c2ccccc2)c2c1C(c1cccc([N+](=O)[O-])c1)c1c(N)nc(=O)[nH]c1O2` (stereo not given), the inhibition of growth at 62.5 µg/mL in [5] is 98%. `CC1=NN(C(=O)c2cc(-c3ccc(Cl)cc3)n[nH]2)C(=O)/C1=N\Nc1ccc(Cl)cc1` gave an MIC in assay [4] of 0.6 µg/mL. In the assay on HepG2, this compound displayed an IC50 of 306 µM. For `Fc1ccc(-c2nnc(-c3n[nH]cc3-c3ccc(Cl)cc3)o2)cc1`, in assay [6], the Ratio is on record as 4. Also, in [2], the MIC was found to be 25 µg/mL (≈ 73.4 µM). In assay [4], `Cc1cc(-n2nc(C(=O)NCc3ccc(OC(F)(F)F)cc3)cc2-c2cccnc2)c2cccc(C(F)(F)F)c2n1` gave an MIC of 3.13 µg/mL. Further, the Ratio in assay [7] turned out to be 16. Take `Cc1cc(C)n(Cc2ccc(C(=O)NCc3ccc(F)cc3Cl)cc2)n1`: the IC50 in assay [8] was found to be 0.04 µM. In the case of `Cc1nn(-c2ccccc2)c2c1C(c1cccc([N+](=O)[O-])c1)c1c(nc[nH]c1=O)O2` (stereo not given), the inhibition of growth at 62.5 µg/mL in assay [5] was 98%. With `COc1ccc(-n2cc(Cn3ncc4c3CCN(C(=O)Nc3ccccc3)C4)nn2)cc1`, the MIC in assay [9] was determined as 24.7 µM (≈ 10.6 µg/mL); in [10] it was 24.7 µM (≈ 10.6 µg/mL); in assay [4], 24.7 µM. In addition, the IC50 at Pantothenate synthetase worked out at 1.01 µM. As a reminder, the MIC99 is an inhibitory concentration at the 99% level, which refers to growth in some studies and to a panel of isolates in others. A lower MIC99 goes with higher susceptibility. Take `COc1nc2ccc(Br)cc2c2c1C(C)(OCC(O)Cn1ccc(-c3ccc(C)c(C)c3)n1)c1ccccc1-2` (stereo not given): the MIC99 in [11] came to 5 µM (≈ 2.92 µg/mL). For the same compound, the inhibition of growth at 6.25 µg/mL in [12] was 40 to 88%. With `N#Cc1ccc(-c2nnc(-c3n[nH]cc3-c3ccc(Cl)cc3)o2)cc1`, the Ratio in assay [6] is listed as 4. The same compound displayed an MIC in assay [2] of 25 µg/mL (≈ 71.9 µM). Compound `Cc1cc(-n2nc(C(=O)NCC(F)(F)F)cc2-c2cccnc2)c2cccc(C(F)(F)F)c2n1` gave an MIC in [4] of 3.13 µg/mL. The Ratio in assay [7] was 16. On to `CC[C@@H](CO)NCCN[C@@H](CC)CO` [ETHAMBUTOL], for which the MIC in [4] was 3.13 µg/mL; in assay [3] it was 0.2 to 4 µg/mL (≈ 0.979 to 19.6 µM).

Turning to `NNC(=O)c1ccncc1` [ISONIAZID], the MIC is 0.03 µg/mL in assay [4], 0.2 to 4 µg/mL (≈ 1.46 to 29.2 µM) in assay [3] and 0.03 µg/mL (≈ 0.219 µM) in [1]. For the same compound, the MIC99 in assay [11] was determined as 1.86 µM (≈ 0.255 µg/mL).

`NC(=O)c1cnccn1` [PYRAZINAMIDE]: the MIC is 50 µg/mL in assay [4], 0.2 to 4 µg/mL (≈ 1.62 to 32.5 µM) in [3] and 100 µg/mL (≈ 812 µM) in assay [2]. Regarding `CO[C@H]1/C=C/O[C@@]2(C)Oc3c(C)c(O)c4c(O)c(c(/C=N/N5CCN(C)CC5)c(O)c4c3C2=O)NC(=O)/C(C)=C\C=C\[C@H](C)[C@H](O)[C@@H](C)[C@@H](O)[C@@H](C)[C@H](OC(C)=O)[C@@H]1C` [RIFAMPIN], in [3], the MIC is 0.2 to 4 µg/mL (≈ 0.243 to 4.86 µM).
